Activity calls are given as the source filed them. The calls are words filed in the database; no cut-off is given here.
How the values were obtained:
[1] = target: T1, Beta-2 adrenergic receptor (Cavia porcellus, UniProt Q8K4Z4); experiment: (§1) Agonist activity at adrenergic beta2 receptor in Hartley guinea pig tracheal ring assessed as bronchorelaxation activity against carbachol-induced contraction; type: functional, tissue-based, Trachea
[2] = target: Beta-2 adrenergic receptor (Cavia porcellus) (UniProt Q8K4Z4); experiment: as §1; type: functional, tissue-based; conditions: Trachea
[3] = target: T1, Beta-2 adrenergic receptor; experiment: Binding affinity to adrenergic beta2 receptor in Hartley guinea pig tracheal ring
[4] = target: Beta-2 adrenergic receptor (Cavia porcellus) (UniProt Q8K4Z4); experiment: Agonist activity at adrenergic beta2 receptor in Hartley guinea pig tracheal ring assessed as maximum bronchorelaxation activity against carbachol-induced contraction at 1 uM; type: functional, tissue-based; conditions: Trachea
[5] = target: T1, Beta-2 adrenergic receptor; experiment: (§2) Agonist activity at adrenergic beta2 receptor in Hartley guinea pig tracheal ring assessed as bronchorelaxation activity against histamine-induced contraction; type: functional, tissue-based, Trachea
[6] = target: Beta-2 adrenergic receptor (Cavia porcellus) (UniProt Q8K4Z4); experiment: as §2; type: functional, tissue-based; conditions: Trachea
[7] = target: Beta-2 adrenergic receptor (Cavia porcellus) (UniProt Q8K4Z4); experiment: Agonist activity at adrenergic beta2 receptor in Hartley guinea pig tracheal ring assessed as bronchorelaxation activity against histamine-induced contraction in presence of propranolol; type: functional, tissue-based; conditions: Trachea
[8] = target: Beta-2 adrenergic receptor (Cavia porcellus) (UniProt Q8K4Z4); experiment: Agonist activity at adrenergic beta2 receptor in Hartley guinea pig tracheal ring assessed as maximum bronchorelaxation activity against histamine-induced contraction at 1 uM; type: functional, tissue-based; conditions: Trachea
[9] = target: Beta-2 adrenergic receptor (Cavia porcellus) (UniProt Q8K4Z4); experiment: Agonist activity at adrenergic beta2 receptor in Hartley guinea pig tracheal ring assessed as bronchorelaxation activity against histamine-induced contraction in presence of ICI-118551; type: functional, tissue-based; conditions: Trachea
[10] = target: Beta-2 adrenergic receptor (Homo sapiens, UniProt P07550)
Sequence of Beta-2 adrenergic receptor (Homo sapiens, UniProt P07550) (P07550 whole entry): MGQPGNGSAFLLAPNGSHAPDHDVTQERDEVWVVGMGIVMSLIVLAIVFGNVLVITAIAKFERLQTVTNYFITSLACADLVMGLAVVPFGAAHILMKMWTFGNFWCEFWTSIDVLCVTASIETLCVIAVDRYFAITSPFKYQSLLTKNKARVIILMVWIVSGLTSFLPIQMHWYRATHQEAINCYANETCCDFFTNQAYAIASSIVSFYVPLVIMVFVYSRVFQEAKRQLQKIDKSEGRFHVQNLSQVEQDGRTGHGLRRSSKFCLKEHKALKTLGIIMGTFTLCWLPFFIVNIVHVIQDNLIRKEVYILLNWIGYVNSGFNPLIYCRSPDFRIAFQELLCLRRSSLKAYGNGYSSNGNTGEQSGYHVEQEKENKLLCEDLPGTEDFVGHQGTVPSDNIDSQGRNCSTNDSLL
Description: Binding affinity to human adrenergic beta2 receptor

Sequence of Beta-2 adrenergic receptor (Cavia porcellus) (Q8K4Z4 whole entry, looked up): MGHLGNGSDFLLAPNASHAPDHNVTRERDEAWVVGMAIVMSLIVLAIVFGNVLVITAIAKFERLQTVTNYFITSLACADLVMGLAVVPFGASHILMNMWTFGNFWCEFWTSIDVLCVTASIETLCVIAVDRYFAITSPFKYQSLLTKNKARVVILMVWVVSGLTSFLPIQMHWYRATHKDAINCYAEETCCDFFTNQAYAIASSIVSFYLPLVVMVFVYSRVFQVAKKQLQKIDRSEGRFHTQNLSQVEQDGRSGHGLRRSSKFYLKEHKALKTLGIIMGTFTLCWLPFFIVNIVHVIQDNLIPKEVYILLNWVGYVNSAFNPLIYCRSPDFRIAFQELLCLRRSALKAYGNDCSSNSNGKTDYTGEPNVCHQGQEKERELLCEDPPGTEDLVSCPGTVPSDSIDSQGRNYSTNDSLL
T1 sequence (Q8K4Z4 whole entry): as the sequence (Q8K4Z4 whole entry, looked up) above

| SMILES | EC50 [1] | Activity [2] | Kd [3] | Activity [4] | EC50 [5] | Activity [6] | Activity [7] | Activity [8] | Activity [9] | Kd [10] |
| --- | --- | --- | --- | --- | --- | --- | --- | --- | --- | --- |
| CC(C)(C)NC[C@@H](O)c1ccc(OB(O)O)c(CO)c1 | 2.1 nM | Dose-dependent effect | 110 nM | Active | 0.072 nM | Dose-dependent effect | inactive | Active | inactive |  |
| CC(C)(C)NCC(O)c1ccc(O)c(CO)c1 (centres undefined) |  | Dose-dependent effect |  |  |  | Dose-dependent effect | inactive |  | inactive |  |
| CC(C)NCC(O)c1cc(O)cc(O)c1 (centres undefined) [METAPROTERENOL] |  |  |  |  |  |  |  |  |  | 4810 nM |

Reference: ChEMBL document CHEMBL1152888, “Synthesis, pharmacological and in silico evaluation of 1-(4-di-hydroxy-3,5-dioxa-4-borabicyclo[4.4.0]deca-7,9,11-trien-9-yl)-2-(tert-butylamino)ethanol, a compound designed to act as a beta2 adrenoceptor agonist” (Eur J Med Chem, 2009)
